Experiment: Anticancer activity against human ECC-1 cells assessed as cell death at 1 uM by tryphan blue staining based cell counter analysis relative to control

## Cc1cccc2c1NC(=O)C2(c1ccc(O)cc1)c1ccc(O)cc1
  cell death at 1 µM: < 20%

Reference: ChEMBL document CHEMBL5223101, “Evolution of 3-(4-hydroxyphenyl)indoline-2-one as a scaffold for potent and selective anticancer activity” (RSC Med Chem, 2022)
